Test results published in US7034035B2, “Fungicidal mono-, bi-, and tri-cycloheteroalkyl amides and their compositions, methods of use and preparation” (priority 1999, dated 2006).

Columns and labels:
Ustilago maydis (USTIMA) = test: microbe, parasite or virus in culture; type: cell-based
[1] = test system: Rhizoctonia solani (RHIZSO); test: microbe, parasite or virus in culture; type: cell-based
Further: test concentration or dose not given here.

SMILES | USTIMA in vitro Growth Inhibition (Ustilago maydis (USTIMA)) | RHIZSO in vitro Growth Inhibition [1]
COc1ccnc(C(=O)NC2CC(C)(C)C(=O)C(C)(C)C2)c1O [Compound 266] | − (key: +: at least 80% growth inhibition; −: less than 80% growth inhibition) | − (key: +: at least 80% growth inhibition; −: less than 80% growth inhibition)
Cc1cc(C)cc(NC(=O)c2ncccc2O)c1 [Compound 215] | − (key: +: at least 80% growth inhibition; −: less than 80% growth inhibition) | − (key: +: at least 80% growth inhibition; −: less than 80% growth inhibition)
COc1ccnc(C(=O)NC2CCN(C(=O)CCc3ccccc3)CC2)c1O [Compound 309] | − (key: +: at least 80% growth inhibition; −: less than 80% growth inhibition) | − (key: +: at least 80% growth inhibition; −: less than 80% growth inhibition)
COc1ccnc(C(=O)N[C@@H]2CC3CC2C2C(=O)N(CC(C)C)C(=O)C32)c1O (stereo partly shown) [Compound 303] | − (key: +: at least 80% growth inhibition; −: less than 80% growth inhibition) | − (key: +: at least 80% growth inhibition; −: less than 80% growth inhibition)
O=C(Nc1cccc(C(F)(F)F)c1)c1ncccc1O [Compound 214] | − (key: +: at least 80% growth inhibition; −: less than 80% growth inhibition) | − (key: +: at least 80% growth inhibition; −: less than 80% growth inhibition)
COC(=O)C(CO)NC(=O)c1nccc(OC)c1O (stereo not shown) [Compound 340] | − (key: +: at least 80% growth inhibition; −: less than 80% growth inhibition) | − (key: +: at least 80% growth inhibition; −: less than 80% growth inhibition)
COc1ccnc(C(=O)NC2CCCC2=O)c1O (stereo not shown) [Compound 249] | − (key: +: at least 80% growth inhibition; −: less than 80% growth inhibition) | − (key: +: at least 80% growth inhibition; −: less than 80% growth inhibition)
COc1ccnc(C(=O)N[C@H]2C(O)[C@@H]3CC[C@H]2[C@@H]2CCCC[C@@H]23)c1O (stereo partly shown) [Compound 293] | − (key: +: at least 80% growth inhibition; −: less than 80% growth inhibition) | − (key: +: at least 80% growth inhibition; −: less than 80% growth inhibition)
COc1ccnc(C(=O)NC2CCCC2O)c1O (stereo not shown) [Compound 248] | − (key: +: at least 80% growth inhibition; −: less than 80% growth inhibition) | − (key: +: at least 80% growth inhibition; −: less than 80% growth inhibition)
COc1ccnc(C(=O)NC2CC(C)(C)CC(C)(C)C2)c1O [Compound 250] | − (key: +: at least 80% growth inhibition; −: less than 80% growth inhibition) | − (key: +: at least 80% growth inhibition; −: less than 80% growth inhibition)
COc1ccnc(C(=O)NC2CC(C)(C)C=CC(C)C2C)c1O (stereo not shown) [Compound 279] | − (key: +: at least 80% growth inhibition; −: less than 80% growth inhibition) | − (key: +: at least 80% growth inhibition; −: less than 80% growth inhibition)
O=C(NCCc1ccc(Cl)cc1)c1ncccc1O [Compound 233, N-(2-(4-Chlorophenyl)Ethyl)-3-Hydroxypyridine-2-Carboxamide] | + (key: +: at least 80% growth inhibition; −: less than 80% growth inhibition) | − (key: +: at least 80% growth inhibition; −: less than 80% growth inhibition)
CCCCCCCCCNC(=O)c1ncccc1O [Compound 201] | − (key: +: at least 80% growth inhibition; −: less than 80% growth inhibition) | − (key: +: at least 80% growth inhibition; −: less than 80% growth inhibition)
COc1ccnc(C(=O)NC2C[C@H](C)O[C@@](C)(Cc3ccccc3)C2)c1O (stereo partly shown) [Compound 312] | − (key: +: at least 80% growth inhibition; −: less than 80% growth inhibition) | − (key: +: at least 80% growth inhibition; −: less than 80% growth inhibition)
COc1ccnc(C(=O)NC2c3ccccc3CC2(C)C)c1O (stereo not shown) [Compound 284] | − (key: +: at least 80% growth inhibition; −: less than 80% growth inhibition) | − (key: +: at least 80% growth inhibition; −: less than 80% growth inhibition)
Cc1cccc(CNC(=O)c2ncccc2O)c1 [Compound 222] | − (key: +: at least 80% growth inhibition; −: less than 80% growth inhibition) | − (key: +: at least 80% growth inhibition; −: less than 80% growth inhibition)
CC(=O)OC1CCC(NC(=O)c2ncccc2O)CC1 (stereo not shown) [Compound 209] | − (key: +: at least 80% growth inhibition; −: less than 80% growth inhibition) | − (key: +: at least 80% growth inhibition; −: less than 80% growth inhibition)
COc1ccnc(C(=O)N[C@H]2CC3OC2[C@H](C)[C@@H](OCc2ccccc2)[C@H]3C)c1O (stereo partly shown) [Compound 321] | − (key: +: at least 80% growth inhibition; −: less than 80% growth inhibition) | − (key: +: at least 80% growth inhibition; −: less than 80% growth inhibition)

SMILES | USTIMA in vitro Growth Inhibition (Ustilago maydis (USTIMA)) | RHIZSO in vitro Growth Inhibition [1]
COc1ccnc(C(=O)NC2O[C@H](CO)[C@H]3OC(C)(C)O[C@@H]23)c1O (stereo partly shown) [Compound 329] | − (key: +: at least 80% growth inhibition; −: less than 80% growth inhibition) | − (key: +: at least 80% growth inhibition; −: less than 80% growth inhibition)
O=C(OC1CCC(NC(=O)c2ncccc2O)CC1)c1ccccc1 (stereo not shown) [Compound 211] | − (key: +: at least 80% growth inhibition; −: less than 80% growth inhibition) | − (key: +: at least 80% growth inhibition; −: less than 80% growth inhibition)
Cc1ccnc(C(=O)Nc2ccc(Oc3cccc(C(F)(F)F)c3)cc2)c1O [Compound 238] | − (key: +: at least 80% growth inhibition; −: less than 80% growth inhibition) | − (key: +: at least 80% growth inhibition; −: less than 80% growth inhibition)
COc1ccnc(C(=O)N[C@H]2CC(C)(C)[C@H](O)C(C)(C)C2)c1O [Compound 264, trans-4-Hydroxy-3,3,5,5-Tetramethylpicolinamide] | − (key: +: at least 80% growth inhibition; −: less than 80% growth inhibition) | − (key: +: at least 80% growth inhibition; −: less than 80% growth inhibition)
CC1(C)CC(NC(=O)c2ncccc2O)CC(C)(C)C1=O [Compound 205] | − (key: +: at least 80% growth inhibition; −: less than 80% growth inhibition) | − (key: +: at least 80% growth inhibition; −: less than 80% growth inhibition)
COc1ccnc(C(=O)N[C@@H]2CCCC[C@H]2SC)c1O [Compound 273] | − (key: +: at least 80% growth inhibition; −: less than 80% growth inhibition) | − (key: +: at least 80% growth inhibition; −: less than 80% growth inhibition)
O=C(NCc1ccc(Cl)cc1)c1ncccc1O [Compound 220] | + (key: +: at least 80% growth inhibition; −: less than 80% growth inhibition) | + (key: +: at least 80% growth inhibition; −: less than 80% growth inhibition)
COc1ccnc(C(=O)N[C@H]2O[C@@H](C)[C@@H](OC(C)=O)[C@@H](OC(C)=O)[C@@H]2OC(C)=O)c1O [Compound 333] | − (key: +: at least 80% growth inhibition; −: less than 80% growth inhibition) | − (key: +: at least 80% growth inhibition; −: less than 80% growth inhibition)
COc1ccnc(C(=O)NC2CC(C)(C)CC(C)(C3CC3)C2)c1O (stereo not shown) [Compound 252] | − (key: +: at least 80% growth inhibition; −: less than 80% growth inhibition) | + (key: +: at least 80% growth inhibition; −: less than 80% growth inhibition)
COc1ccnc(C(=O)NC2CC(C)(C)CC(C)(C(=O)c3ccccc3)C2)c1O (stereo not shown) [Compound 260] | − (key: +: at least 80% growth inhibition; −: less than 80% growth inhibition) | − (key: +: at least 80% growth inhibition; −: less than 80% growth inhibition)
COc1ccnc(C(=O)NC2COC(C)C2)c1O (stereo not shown) [Compound 310] | − (key: +: at least 80% growth inhibition; −: less than 80% growth inhibition) | − (key: +: at least 80% growth inhibition; −: less than 80% growth inhibition)
COc1ccnc(C(=O)NC2CC(C)(C)CC(C)(C(=O)OCCC(C)(C)C)C2)c1O (stereo not shown) [Compound 261] | − (key: +: at least 80% growth inhibition; −: less than 80% growth inhibition) | − (key: +: at least 80% growth inhibition; −: less than 80% growth inhibition)
COc1ccnc(C(=O)NC2C3CSC2CN(Cc2ccccc2)C3)c1O (stereo not shown) [Compound 325] | − (key: +: at least 80% growth inhibition; −: less than 80% growth inhibition) | − (key: +: at least 80% growth inhibition; −: less than 80% growth inhibition)
COc1ccnc(C(=O)NCC2C(C=C(C)C)C2(C)C)c1O (stereo not shown) [Compound 241] | − (key: +: at least 80% growth inhibition; −: less than 80% growth inhibition) | + (key: +: at least 80% growth inhibition; −: less than 80% growth inhibition)
COc1cccc(CNC(=O)c2ncccc2O)c1OC [Compound 227] | − (key: +: at least 80% growth inhibition; −: less than 80% growth inhibition) | − (key: +: at least 80% growth inhibition; −: less than 80% growth inhibition)
COc1ccnc(C(=O)NC/C=C(\C)CCC=C(C)C)c1O [Compound 242] | + (key: +: at least 80% growth inhibition; −: less than 80% growth inhibition) | + (key: +: at least 80% growth inhibition; −: less than 80% growth inhibition)
CC1(C)CC(NC(=O)c2ncccc2O)CC(C)(C2CC2)C1 (stereo not shown) [Compound 204] | − (key: +: at least 80% growth inhibition; −: less than 80% growth inhibition) | − (key: +: at least 80% growth inhibition; −: less than 80% growth inhibition)
